# Entries after “also recorded” stand apart in the source; their conditions may differ.
# Assays:
# [1] = tested on: canine peripheral blood mononuclear cells (PBMCs); assay: IL-1β secretion by canine PBMCs (ELISA); format: cell-based; conditions: lipid 82.5 μM combined with R848 1 μg/mL, 2 days
# Method: (§1) Isolation of PBMCs from Whole Blood. PBMCs were isolated from whole blood using density gradient centrifugation with Ficoll-Paque PLUS (Cytivia). Whole blood was diluted 1:1 with PBS, layered on top of Ficoll-Paque PLUS and centrifuged at 1000×g for 30 minutes at room temperature. PBMCs were collected, washed twice in PBS, and incubated with Ack lysis buffer (Lonza) to remove any remaining red blood cells.
# (§2) Cell Culture and Stimulation. […] Cells were plated at 1×10^5 (canine cells) or 1×10^6 (human cells) per well in 96-well flat bottom tissue culture plates. Lyophilized Vaccigrade R848 (Invivogen) was reconstituted and diluted according to manufacturer's recommendations and added to cells at a final concentration of 1 μg/mL.
# Quantification of Cytokine Secretion. IL-1β secretion from human PBMCs was assessed using one of the following kits: ELISA MAX Deluxe Set Human IL-1β kit (Biolegend), Invitrogen Human IL-1β kit, or the Lumit™ Human IL-1β Immunoassay (Promega). IFNγ secretion from human PBMCs was assessed using the ELISA MAX Deluxe Set Human IFNγ (Biolegend) and TNFα secretion from human PBMCs was assessed using the Human TNFα Uncoated ELISA kit (Invitrogen). […] IL-1β secretion from canine PBMCs was assessed using the Canine IL-1β/IL-1F2 DuoSet ELISA (R&D) according to manufacturer's instructions with the following modifications: i) total sample+buffer volume for incubation was reduced from 100 μL to 50 μL; ii) sample incubation was completed overnight at 4° C. on an orbital shaker. For all ELISAs, absorbance was measured at 450 nm, with a 570 nm correction, using a Spectramax M5e plate reader (Molecular Devices). For Lumit™ assays, luminescence was measured on all wavelengths using a Spectramax M5e plate reader (Molecular Devices) with an integration time of 500 ms. […]
# [2] = tested on: human monocyte-derived dendritic cells (moDCs); assay: PAMP screen: IL-1β secretion by human moDCs with PRR agonist and 22:0 Lyso PC; format: cell-based; conditions: No PAMP, 20 μM 22:0 Lyso PC alone, human moDCs
# Method: Pathogen-Associated Molecular Pattern (PAMP) Screen. Innate immune signaling pathway agonists were purchased from Invivogen. Lyophilized stocks were reconstituted and stored according to manufacturer's instructions and at recommended concentrations. […] Innate immune signaling agonists were diluted in R10 media to the manufacturer's recommended working concentration and then added onto cells. 22:0 Lyso PC was then reconstituted from a lyophilized stock in R10 and then further diluted. The lipid was added onto cells at a final concentration of 20 μM. Cells were incubated for 2 days, then cultures were collected for endpoint analyses.
# Quantification of IL-1beta Secretion. IL-1beta secretion was assessed using the ELISA MAX Deluxe Set Human IL-1beta kit (Biolegend). ELISAs were performed according to manufacturer's instructions with the following modifications: i) total sample volume for incubation was reduced from […] the top standard was prepared at […], with two-fold dilutions to […]; and iii) sample incubation was completed overnight at 4 C on an orbital shaker. […] To determine IL-1beta concentration in supernatants, sample IL-1beta concentrations were interpolated using a standard curve via 4PL analysis on GraphPad Prism 9 (GraphPad Software). The interpolated results of samples were then adjusted for any dilutions made to the supernatant.
# [3] = tested on: murine, FLT3L-differentiated DC; assay: Antigen uptake and presentation assay; format: cell-based, mouse
# Method: Antigen uptake and presentation assay. To examine antigen uptake and the endocytic ability of BMDCs, pHrodo™ Red Dextran 10,000 MW was used (ThermoFisher). Briefly, FLT3L-derived BMDCs previously cultured with media alone, or treated for 24 hours with R848 alone or in combination with 22:0 Lyso PC, were incubated with pHrodo™ Red Dextran (40 ug/ml) for 45 minutes at 37° C., or at 4° C. (as a control for surface binding of the antigen). BMDCs were then washed and stained with Live/Dead Fixable Violet dye (ThermoFisher) to distinguish living cells from dead cells. Cells were then fixed with BD fixation solution and resuspended in MACS buffer. Red (APC) fluorescence of live cells was measured by flow cytometry. Fluorescence values of BMDCs incubated at 37° C. were reported as Mean Fluorescence Intensity (MFI) of pHrodo™ Red Dextran associated cells as normalized to MFI of pHrodo™ Red Dextran associated cells incubated at 4° C. To measure the efficiency of OVA peptide presentation on MHC-I, FLT3L-BMDCs were treated as described above and incubated with Endofit-OVA protein (0.5 mg/ml) for 1 hour at 37° C. […] The percentage of cells associated with the OVA peptide on MHC-I was calculated by flow cytometry. Data were acquired on a Symphony A3 flow cytometer (Becton-Dickenson) and analyzed with FlowJo software (Becton-Dickenson). […]
# [4] = tested on: human monocyte-derived dendritic cells (moDCs); assay: Lipid titration: IL-1β secretion by LPS-activated human moDCs; format: cell-based
# [5] = tested on: canine peripheral blood mononuclear cells (PBMCs); assay: Viability of canine PBMCs (CellTiter-Glo); format: cell-based; conditions: lipid combined with R848, 2 days, relative to R848 alone
# Method: as §1, §2
# Quantification of Cell Viability.
# [6] = tested on: human monocyte-derived dendritic cells (moDCs); assay: DAMP screen: IL-1β secretion by LPS-activated human moDCs (ELISA); format: cell-based
smiles,measurement,setting,value
"CCCCCCCCCCCCCCCCCCCCCC(=O)OC[C@@H](O)COP(=O)([O-])OCC[N+](C)(C)C [22:0 LYSO PC, 1-behenoyl-2-hydroxy-sn-glycero-3-phosphocholine]",IL-1β secretion (in words),[1],comparable or higher levels of IL-1β compared to every other stimuli tested; also recorded: hyperactivated to a greater extent
same,IL-1β secretion,"[2]; Table 1-7, 10 donors",1.1 pg/mL
same,IL-1β secretion,[2]; Table 1-8,1.0 pg/mL
same,OVA antigen processing and cross-presentation on MHC-I (in words),[3]; R848 + lipid,did not interfere with these functions
same,antigen uptake (Red pHrodo dextran) (in words),"[3]; R848 with vs without lipid, 24 h",does not compromise the antigen uptake capacity of DCs
same,concentration lower than PGPC for comparable IL-1beta secretion,"[4]; 10.3 μM 22:0 Lyso PC vs 82.5 μM PGPC, + LPS",~8 times
same,IL-1beta secretion (in words),[4]; 10.3 μM lipid + LPS,retained its ability to induce IL-1beta secretion
same,IL-1β secretion,"[4]; 10.3 μM lipid + LPS 1 μg/mL, 2 days, Table 1-5",224.8 pg/mL
same,IL-1beta secretion (in words),[4]; 20.6 μM lipid + LPS,increased IL-1beta secretion
same,IL-1β secretion,"[4]; 20.6 μM lipid + LPS, human moDCs, 4 donors, mean (SD in wrapped line below)",512.6 pg/mL
same,"lipid activity index, ranking in words",[4]; lipid 1.3-82.5 μM + LPS,most potent activity by far
same,Activity Units (AU) ± SD (lipid activity index),"[4]; reciprocal of lowest concentration giving IL-1β two-fold over LPS x highest IL-1β signal, lipid 1.3-82.5 μM + LPS",370.00 ± 376.36 AU
same,relative cell viability (in words),[5],remain viable
same,relative cell viability (in words),[5]; listed as 22:0 LYSO,did not significantly reduce relative cell viability
same,IL-1β secretion,"[6]; 41.3 μM lipid + LPS 1 μg/mL, 2 days, Table 1-2",1904.2 pg/mL
same,IL-1β secretion,"[6]; 82.5 μM lipid + LPS, selected lipids, Table 1-3 (repeats Table 1-1)",2130.9 pg/mL

# From patent US20240197869A1, “HYPERACTIVATORS OF MAMMALIAN DENDRITIC CELLS” (Corner Therapeutics, Inc., priority 2021, published 2024)
